In patent US4393225A, “AI-77 Compounds and pharmaceutically acceptable salts thereof” (Asahi Kasei Kogyo Kabushiki Kaisha, priority 1979, dated 1983):
Where two headings read alike, the source gives them in different places.

Tested on: ulcer
Test: Anti-ulcer test (restraint and water immersion ulcer in rats, i.p.)
Assay type: in vivo, Male Wistar rats
Conditions: for anti-ulcer activity (in words): rat, in vivo; for inhibition in vivo at 50 mg/kg: Rattus norvegicus, ip, read-out: % Inhibition of Ulcer
Description: The anti-ulcer and anti-edema activity of the compounds was evaluated in efficacy tests described below.
Male Wistar rats weighing about 150 g on average were not fed for 24 hours before the test. Then a solution or suspension of a predetermined concentration of the test compound in physiological saline was administered to them intraperitoneally. One hour after the administration,each rat was restrained in a net cage and submerged in a water both (21° C.) from the tail to xiphistrenun for 6 hours. Test animals were then killed (by dislocation of the cervical vertebrae), the stomach was removed and incised along the curvatura ventriculi major, and the inside wall of the stomach was pathologically examined under microscopic observation. Rats in which the occurrence of an ulceration was substantially not observed were rated O, while others were rated 0.5, 1, 2 or 3, depending on the severity of the ulcer development. The percent inhibition of ulcer was calculated by the following formula: [formula]

| SMILES | inhibition in vivo at 50 mg/kg (50 mg/kg i.p.) [%] | other results |
| --- | --- | --- |
| CC(C)CC(NC(=N)C(O)C(O)C(N)CC(=O)O)C1Cc2cccc(O)c2C(=O)O1 (centres unmarked) [AI-77-A] | – | anti-ulcer activity (in words): high anti-ulcer activity |
| CC(C)CC(NC(=O)C(O)C(O)C(N)CC(=O)O)C1Cc2cccc(O)c2C(=O)O1 (centres unmarked) [AI-77-B] | – | anti-ulcer activity (in words): high anti-ulcer activity |
| CCCC(=O)NC1CC(=O)OC1C(O)C(=O)NC(CC(C)C)C1Cc2cccc(O)c2C(=O)O1 (centres unmarked) [IIIa-1-3] | 66 | – |
| CC(C)CC(NC(=O)C(O)C1OC(=O)CC1NC(=O)C(C)C)C1Cc2cccc(O)c2C(=O)O1 (centres unmarked) [IIIa-1-4] | 66 | – |
| CC(C)CC(=O)NC1CC(=O)OC1C(O)C(=O)NC(CC(C)C)C1Cc2cccc(O)c2C(=O)O1 (centres unmarked) [IIIa-1-5] | – | inhibition in vivo at 50 mg/kg: 66% |
| CCCCC(=O)NC1CC(=O)OC1C(O)C(=O)NC(CC(C)C)C1Cc2cccc(O)c2C(=O)O1 (centres unmarked) [IIIa-1-6] | – | inhibition in vivo at 50 mg/kg: 66% |
| CCCCCC(=O)NC1CC(=O)OC1C(O)C(=O)NC(CC(C)C)C1Cc2cccc(O)c2C(=O)O1 (centres unmarked) [IIIa-1-7] | 66 | – |
| CCCCCCC(=O)NC1CC(=O)OC1C(O)C(=O)NC(CC(C)C)C1Cc2cccc(O)c2C(=O)O1 (centres unmarked) [IIIa-1-8] | 66 | – |
| CCCCCCCC(=O)NC1CC(=O)OC1C(O)C(=O)NC(CC(C)C)C1Cc2cccc(O)c2C(=O)O1 (centres unmarked) [IIIa-1-9] | 66 | – |
| CCCCCCCCCCCC(=O)NC1CC(=O)OC1C(O)C(=O)NC(CC(C)C)C1Cc2cccc(O)c2C(=O)O1 (centres unmarked) [IIIa-1-10] | 66 | – |
| CCCCCCCCCCCCCCCCCC(=O)NC1CC(=O)OC1C(O)C(=O)NC(CC(C)C)C1Cc2cccc(O)c2C(=O)O1 (centres unmarked) [IIIa-1-11] | 44 | – |
| CC(C)CC(NC(=O)C(O)C1OC(=O)CC1NC(=O)C(Cl)(Cl)Cl)C1Cc2cccc(O)c2C(=O)O1 (centres unmarked) [IIIa-1-12] | 66 | – |
| CCCCCCCC/C=C\CCCCCCCC(=O)NC1CC(=O)OC1C(O)C(=O)NC(CC(C)C)C1Cc2cccc(O)c2C(=O)O1 (centres unmarked) [IIIa-1-13] | 44 | – |
| CC(C)CC(NC(=O)C(O)C1OC(=O)CC1NC(=O)c1ccccc1)C1Cc2cccc(O)c2C(=O)O1 (centres unmarked) [IIIa-1-14] | 56 | – |
| CC(C)CC(NC(=O)C(O)C1OC(=O)CC1NC(=O)c1ccc2ccccc2c1)C1Cc2cccc(O)c2C(=O)O1 (centres unmarked) [IIIa-1-15] | 44 | – |
| CC(C)CC(NC(=O)C(O)C1OC(=O)CC1NC(=O)C12CC3CC(CC(C3)C1)C2)C1Cc2cccc(O)c2C(=O)O1 (centres unmarked) [IIIa-1-16] | 56 | – |
| CC(=O)n1cc(C(=O)NC2CC(=O)OC2C(O)C(=O)NC(CC(C)C)C2Cc3cccc(O)c3C(=O)O2)c2ccccc21 (centres unmarked) [IIIa-1-17] | 66 | – |
| CC(C)CC(NC(=O)C(O)C1OC(=O)CC1NC(=O)C1CC1)C1Cc2cccc(O)c2C(=O)O1 (centres unmarked) [IIIa-1-18] | – | inhibition in vivo at 50 mg/kg: 66% |
| CC(C)CC(NC(=O)C(O)C1OC(=O)CC1NC(=O)CCCC1CCCCC1)C1Cc2cccc(O)c2C(=O)O1 (centres unmarked) [IIIa-1-19] | 66 | – |
| CC(C)CC(NC(=O)C(O)C1OC(=O)CC1NC(=O)Cc1ccccc1)C1Cc2cccc(O)c2C(=O)O1 (centres unmarked) [IIIa-1-20] | 66 | – |
| Cc1c(CC(=O)NC2CC(=O)OC2C(O)C(=O)NC(CC(C)C)C2Cc3cccc(O)c3C(=O)O2)ccc2ccccc12 (centres unmarked) [IIIa-1-21] | 56 | – |

| SMILES | inhibition in vivo at 50 mg/kg (50 mg/kg i.p.) [%] | other results |
| --- | --- | --- |
| CC(C)CC(NC(=O)C(O)C1OC(=O)CC1NC(=O)c1ccco1)C1Cc2cccc(O)c2C(=O)O1 (centres unmarked) [IIIa-1-22] | 66 | – |
| CC(C)CC(NC(=O)C(O)C1OC(=O)CC1NC(=O)C1CCCO1)C1Cc2cccc(O)c2C(=O)O1 (centres unmarked) [IIIa-1-23] | 66 | – |
| CC(C)CC(NC(=O)C(O)C1OC(=O)CC1NC(=O)CC1CCCCO1)C1Cc2cccc(O)c2C(=O)O1 (centres unmarked) [IIIa-1-24] | 66 | – |
| CC(C)CC(NC(=O)C(O)C1OC(=O)CC1NC(=O)c1cccs1)C1Cc2cccc(O)c2C(=O)O1 (centres unmarked) [IIIa-1-25] | 66 | – |
| CC(C)CC(NC(=O)C(O)C1OC(=O)CC1NC(=O)CCCc1cccs1)C1Cc2cccc(O)c2C(=O)O1 (centres unmarked) [IIIa-1-26] | 66 | – |
| CC(C)CC(NC(=O)C(O)C1OC(=O)CC1NC(=O)c1nnnn1C)C1Cc2cccc(O)c2C(=O)O1 (centres unmarked) [IIIa-1-27] | 66 | – |
| CC(=O)n1cccc1C(=O)NC1CC(=O)OC1C(O)C(=O)NC(CC(C)C)C1Cc2cccc(O)c2C(=O)O1 (centres unmarked) [IIIa-1-28] | 66 | – |
| CC(C)CC(NC(=O)C(O)C1OC(=O)CC1NC(=O)c1cccn1C)C1Cc2cccc(O)c2C(=O)O1 (centres unmarked) [IIIa-1-29] | 66 | – |
| COc1ccc2ncc(C(=O)NC3CC(=O)OC3C(O)C(=O)NC(CC(C)C)C3Cc4cccc(O)c4C(=O)O3)cc2c1 (centres unmarked) [IIIa-1-30] | 56 | – |
| CC(C)CC(NC(=O)C(O)C1OC(=O)CC1NC(=O)CCCBr)C1Cc2cccc(O)c2C(=O)O1 (centres unmarked) [IIIa-1-31] | 66 | – |
| CCC(=O)C(=O)NC1CC(=O)OC1C(O)C(=O)NC(CC(C)C)C1Cc2cccc(O)c2C(=O)O1 (centres unmarked) [IIIa-1-32] | 66 | – |
| CC(C)CC(NC(=O)C(O)C1OC(=O)CC1NC(=O)C1CCCCC1=O)C1Cc2cccc(O)c2C(=O)O1 (centres unmarked) [IIIa-1-33] | 66 | – |
| CC(=O)Oc1ccc(C(=O)NC2CC(=O)OC2C(O)C(=O)NC(CC(C)C)C2Cc3cccc(O)c3C(=O)O2)cc1 (centres unmarked) [IIIa-1-34] | 66 | – |
| CC(C)CC(NC(=O)C(O)C1OC(=O)CC1NC(=O)c1ccc(O)cc1)C1Cc2cccc(O)c2C(=O)O1 (centres unmarked) [IIIa-1-35] | 66 | – |
| CCOC(=O)CCC(=O)NC1CC(=O)OC1C(O)C(=O)NC(CC(C)C)C1Cc2cccc(O)c2C(=O)O1 (centres unmarked) [IIIa-1-36] | 66 | – |
| CSCC(=O)NC1CC(=O)OC1C(O)C(=O)NC(CC(C)C)C1Cc2cccc(O)c2C(=O)O1 (centres unmarked) [IIIa-1-44] | 66 | – |
| CCCCCSCC(=O)NC1CC(=O)OC1C(O)C(=O)NC(CC(C)C)C1Cc2cccc(O)c2C(=O)O1 (centres unmarked) [IIIa-1-45] | 66 | – |
| CSc1ccc(C(=O)NC2CC(=O)OC2C(O)C(=O)NC(CC(C)C)C2Cc3cccc(O)c3C(=O)O2)cc1 (centres unmarked) [IIIa-1-46] | 66 | – |
| CCCCCSc1ccc(C(=O)NC2CC(=O)OC2C(O)C(=O)NC(CC(C)C)C2Cc3cccc(O)c3C(=O)O2)cc1 (centres unmarked) [IIIa-1-47] | 56 | – |
| CC(=O)OC(C)CC(=O)NC1CC(=O)OC1C(O)C(=O)NC(CC(C)C)C1Cc2cccc(O)c2C(=O)O1 (centres unmarked) [IIIa-1-48] | 66 | – |
| CCCCCC(=O)OC(C)CC(=O)NC1CC(=O)OC1C(O)C(=O)NC(CC(C)C)C1Cc2cccc(O)c2C(=O)O1 (centres unmarked) [IIIa-1-49] | 56 | – |

| SMILES | inhibition in vivo at 50 mg/kg (50 mg/kg i.p.) [%] | other results |
| --- | --- | --- |
| COC(=O)c1ccc(C(=O)NC2CC(=O)OC2C(O)C(=O)NC(CC(C)C)C2Cc3cccc(O)c3C(=O)O2)cc1 (centres unmarked) [IIIa-1-50] | 66 | – |
| CCCCCOC(=O)c1ccc(C(=O)NC2CC(=O)OC2C(O)C(=O)NC(CC(C)C)C2Cc3cccc(O)c3C(=O)O2)cc1 (centres unmarked) [IIIa-1-51] | 44 | – |
| C#CC(=O)NC1CC(=O)OC1C(O)C(=O)NC(CC(C)C)C1Cc2cccc(O)c2C(=O)O1 (centres unmarked) [IIIa-1-52] | 66 | – |
| CC(C)CCc1ccc(C(C)C(=O)NC2CC(=O)OC2C(O)C(=O)NC(CC(C)C)C2Cc3cccc(O)c3C(=O)O2)cc1 (centres unmarked) [IIIa-1-53] | 56 | – |
| C/C=C/C(=O)NC1CC(=O)OC1C(O)C(=O)NC(CC(C)C)C1Cc2cccc(O)c2C(=O)O1 (centres unmarked) [IIIa-1-54] | 66 | – |
| CC(C)CC(NC(=O)C(O)C1OC(=O)CC1NC(=O)C=Cc1ccoc1)C1Cc2cccc(O)c2C(=O)O1 (centres unmarked) [IIIa-1-57] | 56 | – |
| CC(C)CC(NC(=O)C(O)C1OC(=O)CC1NC(=O)Cc1cccnc1)C1Cc2cccc(O)c2C(=O)O1 (centres unmarked) [IIIa-1-58] | 66 | – |
| CC(C)CC(NC(=O)C(O)C1OC(=O)CC1NC(=O)C1CCC=CO1)C1Cc2cccc(O)c2C(=O)O1 (centres unmarked) [IIIa-1-59] | 66 | – |
| CC(C)CC(NC(=O)C(O)C1OC(=O)CC1NC(=O)c1cocc1C(=O)O)C1Cc2cccc(O)c2C(=O)O1 (centres unmarked) [IIIa-1-60] | 66 | – |
| CC(C)CC(NC(=O)C(O)C1OC(=O)CC1NC(=O)C1CCCCCCC1)C1Cc2cccc(O)c2C(=O)O1 (centres unmarked) [IIIa-1-62] | 66 | – |
| CC(C)CC(NC(=O)C(O)C1OC(=O)CC1NC(=O)CCC1CCCC1)C1Cc2cccc(O)c2C(=O)O1 (centres unmarked) [IIIa-1-63] | 66 | – |
| CC(C)CC(NC(=O)C(O)C1OC(=O)CC1NC(=O)Cc1ccc2ccccc2c1)C1Cc2cccc(O)c2C(=O)O1 (centres unmarked) [IIIa-1-64] | 56 | – |
| Cc1ccc(CC(=O)NC2CC(=O)OC2C(O)C(=O)NC(CC(C)C)C2Cc3cccc(O)c3C(=O)O2)cc1 (centres unmarked) [IIIa-1-65] | 66 | – |
| CC(C)=CCC/C(C)=C/CC/C(C)=C/CCC(=O)NC1CC(=O)OC1C(O)C(=O)NC(CC(C)C)C1Cc2cccc(O)c2C(=O)O1 (centres unmarked) [IIIa-1-67] | 66 | – |
| COC(=O)C1CCC(C(=O)NC2CC(=O)OC2C(O)C(=O)NC(CC(C)C)C2Cc3cccc(O)c3C(=O)O2)CC1 (centres unmarked) [IIIa-1-68] | 66 | – |
| CC(C)CC(NC(=O)C(O)C1OC(=O)CC1NC(=O)c1ccc(C(C)C)cc1)C1Cc2cccc(O)c2C(=O)O1 (centres unmarked) [IIIa-1-69] | 66 | – |
| Cc1ccc(C(C)C)cc2c(C(=O)NC3CC(=O)OC3C(O)C(=O)NC(CC(C)C)C3Cc4cccc(O)c4C(=O)O3)c(C)cc1-2 (centres unmarked) [IIIa-1-70] | 56 | – |
| CC(C)CC(NC(=O)C(O)C1OC(=O)CC1NC(=O)C1CC2C=CC1C2)C1Cc2cccc(O)c2C(=O)O1 (centres unmarked) [IIIa-1-71] | – | inhibition in vivo at 50 mg/kg: 66% |
| COC1CCC(C(=O)NC2CC(=O)OC2C(O)C(=O)NC(CC(C)C)C2Cc3cccc(O)c3C(=O)O2)CC1 (centres unmarked) [IIIa-1-73] | 66 | – |
| CC(=O)OC1CCC(C(=O)NC2CC(=O)OC2C(O)C(=O)NC(CC(C)C)C2Cc3cccc(O)c3C(=O)O2)CC1 (centres unmarked) [IIIa-1-74] | 66 | – |
